What was measured:
[1] = tested on: Candida albicans ATCC 90028; test: CFU assay with C. albicans; assay type: cell-based; conditions: for Estimate (difference between means of log values): control - treatment
Description: Candida albicans strains: ATCC 90028, CAF-1-2, SC5814, BM4f35II68, vaginal clinical isolates from Dept. of Clincal Microbiology, Skåne University Hospital, SO_303369 and SO_503471. Candida parapsilosis strains: ATCC 90018, BD1800, BD17837, and BM24/68/09. Candida glabrata strains: ATCC 90030, clinical isolates from Dept. of Clincal Microbiology, Skåne University Hospital, SO_3336, SO_3400 and SO_503413. All strains were inoculated from frozen culture and grown in Yeast extract-Peptone-Dextrose (YPD) (Sigma) and on Sabourand Dextrose Broth (SAB) (Difco) plates at 30°C with 5% (v/v) CO2. If not otherwise stated, ATCC 90028 was used for candidacidal experiments.
Candida albicans was grown over night, washed, and resuspended in 10 mM Tris, 5 mM glucose, pH 7.4 or pH 4. Approximately 4×10^3 to 10^4 CFU of C. albicans were incubated with the test substance in low or neutral pH buffer for 4 h at 37°C. After incubation, the suspension was diluted and plated. Colonies were counted after two days incubation of the plates at 30°C. Bacteria from overnight cultures were inoculated in fresh medium and grown for 3 h, washed in 10 mM Tris, 5 mM glucose pH 7.4. Approximately 8×10^4 CFU were incubated with sample in 10 mM Tris, 5 mM glucose pH 7.4 or pH 4 for 1 h at 37°C, diluted, plated and incubated over night at 37°C and the colonies counted.
Statistical analysis was performed using SAS 9.2 software (SAS Institute, Cary, NC). Colony counts were log transformed. In order to choose the statistical method, interactions between the Treatment and Experiment were investigated. Treatments were screened by doing pair wise comparisons of each treatment to a control. Statistical tests used for the comparisons included MIXED procedure and LSMEANS statement. All tests where P-value<.05 were considered to indicate statistical significance. P-values were not adjusted for the multiple comparisons.
“Estimate” is the estimate of the difference between means of log values of treatment 1 and treatment 2

[2] = Liposome leakage (carboxyfluorescein release); assay type: biochemical; conditions: control experiments with EDTA alone
Experimental: Subsequently, buffer (10 mM Tris, pH 7.4) was added together with 0.1 M carboxyfluorescein (CF) (Sigma, St Louis, MO). After hydration, the lipid mixture was subjected to eight freeze-thaw cycles consisting of freezing in liquid nitrogen and heating to 60°C. Unilamellar liposomes of about Ø140 nm were generated by multiple extrusions through polycarbonate filters (pore size 100 nm) mounted in a […] (Avestin, Ottawa, Canada) at 22°C. Untrapped CF was then removed by two gel filtrations (Sephadex G-50) at 22°C, with Tris buffer as eluent. CF release was determined by monitoring the emitted fluorescence at 520 nm from liposome dispersions (10 mM lipid in 10 mM Tris). An absolute leakage scale was obtained by disrupting the liposomes at the end of the experiment through addition of 0.8 mM Triton X100 (Sigma, St Louis, MO), causing 100% release and dequenching of CF. Although calcein is frequently used for pH-dependent leakage studies, the high charge of this dye has been noted to influence its leakage behavior in the presence of highly cationic peptides. Instead, therefore, CF was used as a leakage marker at both pH 6.0 and 7.4, avoiding pH-dependent fluorescence effects through neutralization prior to probing the limiting leakage in case of pH 6.0 leakage. Throughout, a SPEX-fluorolog 1650 0.22-m double spectrometer (SPEX Industries, Edison, NJ) was used for the liposome leakage assay. Measurements were performed in at least triplicate at 37°C.

C. albicans = test: Antifungal gel overlay assay (AU-PAGE); assay type: cell-based, Candida albicans
Experimental: Gel overlay assay was performed essentially as described. Briefly, duplicate samples were run on native Acid Urea (AU-PAGE) gels in 5% (v/v) acetic acid at 100 V for 1 h 20 min. Candida albicans was grown over night, washed and resuspended in 10 mM NaPO4 pH 7.4 and approximately 1×10^5 CFU were added to 12 ml melted underlay agarose (10 mM NaPO4, pH 7.4, 0.03% SAB, 1% agarose type 1 (Sigma, St. Louis, MO)) and poured into a square Petri dish. One AU-gel was stained with Coomassie brilliant blue and one AU gel was washed 3×4 min in 10 mM NaPO4, pH 7.4 and then placed on top of the agarose and incubated for 4 h at 37°C. The AU gel was then removed and an overlay agarose (6% SAB, 1% agarosetype 1 (Sigma)) was poured on top of the underlay and incubated over night at 30°C. To make the clearing zones more visible, the agarose was stained with Coomassie brilliant blue followed by destaining.

[3] = 5 µM, pH 4, with EDTA, experiment 1
[4] = 5 µM, pH 4, with EDTA, experiment 2
[5] = 5 µM, pH 4, with EDTA, experiment 3
[6] = 5 µM, pH 4, without EDTA, experiment 1
[7] = 5 µM, pH 4, without EDTA, experiment 2
[8] = 5 µM, pH 4, without EDTA, experiment 3

## O=C(O)CN(CCN(CC(=O)O)CC(=O)O)CC(=O)O [EDTA, reference compound]
[1]; 25 µM, pH 4, experiment 1
  Estimate (difference between means of log values): 0.3309
[1]; 25 µM, pH 4, experiment 2
  Estimate (difference between means of log values): -0.2077
[1]; 25 µM, pH 4, experiment 3
  Estimate (difference between means of log values): -0.01878
[2]
  Liposome rupture: no liposome rupture

## EISCCTLVSTPVGYDKDNCQ [MSP4, synthetic MSP-derived peptide]
[1]; [3]
  Estimate (difference between means of log values): -0.3731
[1]; [4]
  Estimate (difference between means of log values): -0.4012
[1]; [5]
  Estimate (difference between means of log values): -0.1411
[1]; [6]
  Estimate (difference between means of log values): -0.5304
[1]; [7]
  Estimate (difference between means of log values): -0.8100
[1]; [8]
  Estimate (difference between means of log values): -0.2155

## EWQTDNCETCTCYETEISCC [MSP3, synthetic MSP-derived peptide]
[1]; [3]
  Estimate (difference between means of log values): 0.09392
[1]; [4]
  Estimate (difference between means of log values): 0.05166
[1]; [5]
  Estimate (difference between means of log values): -0.02824
[1]; [6]
  Estimate (difference between means of log values): -0.2487
[1]; [7]
  Estimate (difference between means of log values): -0.7316
[1]; [8]
  Estimate (difference between means of log values): -0.09956

## IVVEKKDPKKTCSVSEWII [MSP6, synthetic MSP-derived peptide]
[1]; [3]
  Estimate (difference between means of log values): 1.6087
[1]; [4]
  Estimate (difference between means of log values): 3.2325
[1]; [5]
  Estimate (difference between means of log values): 0.6931
[1]; [6]
  Estimate (difference between means of log values): -0.00322
[1]; [7]
  Estimate (difference between means of log values): 0.07848
[1]; [8]
  Estimate (difference between means of log values): 0.9139

## KDNCQRIFKKEDCKYIVVEK [MSP5, synthetic MSP-derived peptide encompassing residues 61–80]
[1]; 5 µM, pH 4
  Fungicidal activity in CFU assay (rank among overlapping peptides): highest fungicidal activity of the tested peptides
[1]; [3]
  Estimate (difference between means of log values): 2.0492
[1]; [4]
  Estimate (difference between means of log values): 4.5365
[1]; [5]
  Estimate (difference between means of log values): 3.0952
[1]; [6]
  Estimate (difference between means of log values): 0.5704
[1]; [7]
  Estimate (difference between means of log values): 0.3334
[1]; [8]
  Estimate (difference between means of log values): 0.6913

## LL-37 [reference compound]
[1]; 50 µM LL-37, pH 4, + 50 µM calcium, experiment 1
  Estimate (difference between means of log values): 1.6956
[1]; 50 µM LL-37, pH 4, + 50 µM calcium, experiment 2
  Estimate (difference between means of log values): 1.8880
[1]; 50 µM LL-37, pH 4, + 75 µM calcium, experiment 1
  Estimate (difference between means of log values): 1.5909
[1]; 50 µM LL-37, pH 4, + 75 µM calcium, experiment 2
  Estimate (difference between means of log values): 1.5305
[1]; 50 µM LL-37, pH 4, + 100 µM calcium, experiment 1
  Estimate (difference between means of log values): 1.3942
[1]; 50 µM LL-37, pH 4, + 100 µM calcium, experiment 2
  Estimate (difference between means of log values): 1.4384
[1]; 50 µM LL-37, pH 4, + 200 µM calcium, experiment 1
  Estimate (difference between means of log values): 1.3064
[1]; 50 µM LL-37, pH 4, + 200 µM calcium, experiment 2
  Estimate (difference between means of log values): 1.4253
[1]; 50 µM LL-37, pH 4, no calcium, experiment 1
  Estimate (difference between means of log values): 1.6339
[1]; 50 µM LL-37, pH 4, no calcium, experiment 2
  Estimate (difference between means of log values): 2.4025
[1]; 50 µM LL-37, pH 7.4, + 50 µM calcium, experiment 1
  Estimate (difference between means of log values): 2.0757
[1]; 50 µM LL-37, pH 7.4, + 50 µM calcium, experiment 2
  Estimate (difference between means of log values): 2.0565
[1]; 50 µM LL-37, pH 7.4, + 50 µM calcium, experiment 3
  Estimate (difference between means of log values): 2.6878
[1]; 50 µM LL-37, pH 7.4, + 75 µM calcium, experiment 1
  Estimate (difference between means of log values): 1.1627
[1]; 50 µM LL-37, pH 7.4, + 75 µM calcium, experiment 2
  Estimate (difference between means of log values): 2.6753
[1]; 50 µM LL-37, pH 7.4, + 75 µM calcium, experiment 3
  Estimate (difference between means of log values): 2.9703
[1]; 50 µM LL-37, pH 7.4, + 100 µM calcium, experiment 1
  Estimate (difference between means of log values): 1.6404
[1]; 50 µM LL-37, pH 7.4, + 100 µM calcium, experiment 2
  Estimate (difference between means of log values): 2.5186
[1]; 50 µM LL-37, pH 7.4, + 100 µM calcium, experiment 3
  Estimate (difference between means of log values): 2.6194
[1]; 50 µM LL-37, pH 7.4, + 200 µM calcium, experiment 1
  Estimate (difference between means of log values): 1.4145
[1]; 50 µM LL-37, pH 7.4, + 200 µM calcium, experiment 2
  Estimate (difference between means of log values): 2.7659
[1]; 50 µM LL-37, pH 7.4, + 200 µM calcium, experiment 3
  Estimate (difference between means of log values): 3.5282
[1]; 50 µM LL-37, pH 7.4, no calcium, experiment 1
  Estimate (difference between means of log values): 3.2986
[1]; 50 µM LL-37, pH 7.4, no calcium, experiment 2
  Estimate (difference between means of log values): 3.2280
[1]; 50 µM LL-37, pH 7.4, no calcium, experiment 3
  Estimate (difference between means of log values): 4.0296

## RKCMDLKGNKHPINSEWQTD [MSP2, synthetic MSP-derived peptide]
[1]; [3]
  Estimate (difference between means of log values): 0.5727
[1]; [4]
  Estimate (difference between means of log values): 0.2951
[1]; [5]
  Estimate (difference between means of log values): 0.5877
[1]; [6]
  Estimate (difference between means of log values): -0.4638
[1]; [7]
  Estimate (difference between means of log values): -0.7678
[1]; [8]
  Estimate (difference between means of log values): 0.2466

## SCYFIPNEGVPGDSTRKCMD [MSP1, synthetic MSP-derived peptide]
[1]; [3]
  Estimate (difference between means of log values): -0.3564
[1]; [4]
  Estimate (difference between means of log values): -0.5558
[1]; [5]
  Estimate (difference between means of log values): -0.1369
[1]; [6]
  Estimate (difference between means of log values): -0.6949
[1]; [7]
  Estimate (difference between means of log values): -0.6938
[1]; [8]
  Estimate (difference between means of log values): -0.2057

## TNKCQKILNKKTCTYTVVEK [PMSP, peptide from porcine MSP corresponding to human MSP61–80]
[1]; data not shown
  Effect of calcium and magnesium on antifungal activity: inhibited by calcium but not magnesium
[1]; pH 4, with and without EDTA, Figure S4
  Fungicidal activity compared with human MSP61–80: even higher fungicidal activity than its human counterpart
[1]; pH 4, with and without EDTA, three independent experiments
  Difference of mean colony counts between control and treatment: Significant difference (reduction)

## prostate specific antigen: major protein from the prostate [reference compound]
C. albicans
  Clearing zone in antifungal gel overlay assay: did not give rise to clearing zones

Source: article PMC3320615, “β-Microseminoprotein Endows Post Coital Seminal Plasma with Potent Candidacidal Activity by a Calcium- and pH-Dependent Mechanism” (PLoS Pathogens, 2012)
